According to US10463044B2, “Molecules that inhibit efflux pumps in multi-drug resistant bacteria and uses thereof” (priority 2014, dated 2019):
Values after ≈ are worked out from the molar mass of the structure shown. Values joined by “and” are separate entries in the source; they are usually repeats but may differ in a detail not shown here. Equal values may be shown once. Read-outs that look alike come from different tables or passages of the source.

Assays:
[1] = system: S. aureus 1199B; assay: MIC, S. aureus 1199B; format: cell-based, Staphylococcus aureus
Excerpt: (§1) K. pneumoniae (ATCC BAA 2146; another Gram-negative bacterium) that expresses multiple classes of efflux pumps and NDM-1 gene was also used. This K. pneumoniae is a clinically relevant strain that was isolated from a patient. Gram-positive S. aureus 1199B was used that overexpresses the NorA efflux pump. Since ethidium bromide and norfloxacin are the substrates of efflux pumps, S. aureus 1199B was used to evaluate the activity of efflux pumps in the presence of the hydraphiles and other membrane disruptors.
(§2) The minimal inhibitory concentrations (MIC) of all the compounds against three bacterial strains were first determined using the microtiter technique as described above. […] Antimicrobial property of hydraphiles is attributed to the disruption of ion homeostasis in bacteria.

[2] = system: tetracycline resistant E. coli (tetA efflux pump); format: cell-based, Escherichia coli
Protocol: (§3) However, the bacterial strains used herein are multidrug resistant and the effect of hydraphiles on the inhibition of resistance mechanism (efflux pumps) was not known. The hydraphiles and the controls were tested next to see whether they could recover the activity of antibiotics against efflux pump expressing Gram-positive and Gram-negative bacteria. The MIC of antibiotics were determined in the presence of ½ [MIC] or ¼ [MIC] of each hydraphile or the controls used.

[3] = system: K-12 E. coli; assay: Combination of amphiphile and antibiotic against K-12 E. coli; format: cell-based, Escherichia coli
Protocol: (§6) Steps 1-7, described in the MIC procedure, shown in Example 2, were followed. • 2. While the E. coli grew, the appropriate volume of compound was added to each test tube. • 3. Antibiotics were added at the required volume of solution to obtain the desired concentration in each test tube. […] Each test tube was vortexed for 2-3 seconds. • 5. Steps 10-12 from the MIC procedure, shown in Example 2, were then executed.

[4] = system: E. coli; assay: Minimum inhibitory concentration (MIC), E. coli; format: cell-based, Escherichia coli; conditions: compound alone
Excerpt: (§4) Among the organisms studied are several strains of the bacterium E. coli.
(§5) Minimal Inhibitory Concentration (MIC) Procedure. […] Streak the E. coli (DH5α or K-12 MG1655) strain on L.B agar plates. […] Prepare initial concentration of all the compounds required. • 5. […] Vortex each test tube for 2-3 seconds. • 9. […] Vortex each test tube for 2-3 seconds. • 11.

[5] = system: S. cerevisiae; assay: Minimum inhibitory concentration (MIC), S. cerevisiae; format: cell-based, Saccharomyces cerevisiae; conditions: compound alone
[6] = system: tetracycline resistant E. coli (tetA efflux pump); assay: microbe, parasite or virus in culture; format: cell-based, Escherichia coli; conditions: compound alone; for MIC: tetracycline resistant E. coli
Excerpt: as §4
Minimal Inhibitory Concentration (MIC) Procedure. […] Streak the E. coli (DH5α or K-12 MG1655) strain on L.B agar plates. […] Prepare initial concentration of all the compounds required. • 5. […] Vortex each test tube for 2-3 seconds. • 9. […] Vortex each test tube for 2-3 seconds. • 11. […]
as §2

[7] = system: B. subtilis; assay: Minimum inhibitory concentration (MIC), B. subtilis; format: cell-based, Bacillus subtilis; conditions: compound alone
Protocol: Among the organisms studied are several strains of the bacterium E. coli. […] Experiments were conducted to determine the MIC values for the synthetic amphiphiles known as lariat ethers according to the procedures described in Antimicrobial M07-A9: Methods for Dilution Antimicrobial Susceptibility Tests for Bacteria that Grow Aerobically; Clinical and Laboratory Standards Institute, 2012; Vol. 32, 67 pp. MIC values so determined for several lariat ethers and for several antibiotics are shown in Table 1.

[8] = system: HEK-293 cells; assay: Toxicity of lariat ethers to HEK-293 cells (MTT assay); format: cell-based
Excerpt: The error bars represent the standard error. […]

[9] = system: K-12 E. coli; assay: MIC, K-12 E. coli; format: cell-based, Escherichia coli; conditions: compound alone
Excerpt: as §5

[10] = system: DH5α E. coli; format: cell-based, Escherichia coli; conditions: compound alone
Excerpt: as §4, §5

[11] = system: DH5α E. coli; assay: Combination of lariat ether and antibiotic against DH5α E. coli; format: cell-based, Escherichia coli;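 also: E. coli grown in test-tube liquid culture at a fixed total volume of 2 mL, with the amphiphile and the antibiotic both added to each tube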
Protocol: The volume of water added was between 12 to 0.5 μL. The volume of water added was not constant but the volume of media was changed so that the total volume was kept constant at 2 mL.
as §6

[12] = system: K. pneumoniae (ATCC BAA 2146); assay: MIC, K. pneumoniae; format: cell-based, Klebsiella pneumoniae; conditions: for MIC: Klebsiella pneumoniae, BAA2146, read-out: Minimal Inhibitory Concentrations (MIC) K. pneumoniae
Excerpt: as §1, §2

[13] = system: K. pneumoniae (ATCC BAA 2146); assay: Recovery of antibiotic activity against K. pneumoniae by hydraphiles; format: cell-based, Klebsiella pneumoniae
Protocol: as §3

[14] = Rifampicin, amphiphile used 6 μM
[15] = Tetracycline, amphiphile used 16 μM
[16] = Tetracycline, amphiphile used 6 μM
[17] = rifampicin, amphiphile used 8 μM, 0.4 vol-% DMSO
[18] = rifampicin, amphiphile used 16 μM, 0.4 vol-% DMSO
[19] = rifampicin, amphiphile used 18 μM, 0.4 vol-% DMSO
[20] = rifampicin, amphiphile used […] μM, 0.4 vol-% DMSO
[21] = tetracycline, amphiphile used 4 μM, 0.4 vol-% DMSO
[22] = tetracycline, amphiphile used 16 μM, 0.4 vol-% DMSO
[23] = tetracycline, amphiphile used 18 μM, 0.4 vol-% DMSO
[24] = tetracycline, amphiphile used […] μM, 0.4 vol-% DMSO

CCn1cc(C(=O)O)c(=O)c2cc(F)c(N3CCNCC3)cc21 [norfloxacin]
susceptibility of S. aureus 1199B [1]: resistant

c1ccc(CN2CCOCCOCCN(Cc3ccccc3)CCOCCOCC2)cc1 [Dibenzyl diaza crown, N,N′-Dibenzyl-4,13-diaza-18-crown-6, reference compound]
Fold Enhancement ([2]; amphiphile/control 128 μM): 1-fold | [Tetracycline] μM in combination ([2]; amphiphile/control 128 μM): 900 µM | Fold Enhancement ([2]; amphiphile/control 128 μM, listed as Dibenzyl di-aza-crown): did not show any recovery

N,N′-di-n-decyl-4,13-diaza-18-crown-6 [C10 lariat ether]
Antibiotic Used (μM) in combination [3, 14]: 5 µM | MIC (μM) E. coli [4]: 11 µM | MIC (μM) S. cerevisiae [5]: 2.8 µM | MIC [6]: 16 µM | MIC (μM) B. subtilis [7]: 2.8 µM | Antibiotic Used (μM) in combination ([2]; amphiphile used 6 μM): 225 µM | Fold Enhancement ([2]; amphiphile used 6 μM): 4 fold | Antibiotic Used (μM) in combination ([2]; amphiphile used 9 μM): 56 µM | Fold Enhancement ([2]; amphiphile used 9 μM): 16 fold | toxicity to HEK-293 compared among lariat ethers [8]: highest toxicity | MIC [9]: 12 µM | MIC [10]: 12 µM

N,N′-di-n-tetradecyl-4,13-diaza-18-crown-6 [C14 lariat ether]
MIC (μM) E. coli [4]: >300 µM | MIC (μM) S. cerevisiae [5]: >300 µM | MIC (μM) B. subtilis [7]: >300 µM

N,N′-di-n-octyl-4,13-diaza-18-crown-6 [C8 lariat ether]
Antibiotic Used (μM) in combination ([3]; Rifampicin, amphiphile used 32 μM): 10 µM | Antibiotic Used (μM) in combination ([3]; Rifampicin, amphiphile used […] μM): 5 µM | Antibiotic Used (μM) in combination ([3]; Tetracycline, amphiphile used […] μM): 2.5 µM | MIC (μM) E. coli [4]: 120 µM | MIC (μM) S. cerevisiae [5]: 25 µM | MIC [6]: 120 µM | MIC (μM) B. subtilis [7]: 105 µM | Antibiotic Used (μM) in combination ([2]; amphiphile used 40 μM): 233 µM | Fold Enhancement ([2]; amphiphile used 40 μM): 4 fold | Antibiotic Used (μM) in combination ([2]; amphiphile used 60 μM): 175 µM | Fold Enhancement ([2]; amphiphile used 60 μM): 5 fold | Antibiotic Used (μM) in combination ([2]; amphiphile used 80 μM): 87 µM | Fold Enhancement ([2]; amphiphile used 80 μM): 10 fold | LD50 to HEK-293 [8]: 33 µM | MIC [9]: 300 µM | Antibiotic Used (μM) in combination ([11]; rifampicin, amphiphile used 40 μM, 0.4 vol-% DMSO): 3 ± 1 µM | Antibiotic Used (μM) in combination ([11]; rifampicin, amphiphile used 60 μM, 0.4 vol-% DMSO): 3 ± 1 µM | Antibiotic Used (μM) in combination ([11]; rifampicin, amphiphile used 80 μM, 0.4 vol-% DMSO): 3 ± 1 µM | Antibiotic Used (μM) in combination ([11]; tetracycline, amphiphile used 20 μM, 0.4 vol-% DMSO): 12 µM | Antibiotic Used (μM) in combination ([11]; tetracycline, amphiphile used 30 μM, ≤0.6 vol-% DMSO): 3 µM | Antibiotic Used (μM) in combination ([11]; tetracycline, amphiphile used 40 μM, 0.4 vol-% DMSO): 2 µM | Antibiotic Used (μM) in combination ([11]; tetracycline, amphiphile used 60 μM, 0.4 vol-% DMSO): 2 µM | Antibiotic Used (μM) in combination ([11]; tetracycline, amphiphile used 80 μM, 0.4 vol-% DMSO): 0.5 µM | Antibiotic Used (μM) in combination ([11]; tetracycline, amphiphile used 100 μM, 0.4 vol-% DMSO): 0.25 µM | MIC [10]: > 240 µM | MIC ([10]; listed as C8 Lariat): 120 µM | MIC ([10]; listed as n-C8): >120 µM

CN(C)[C@@H]1C(O)=C(C(N)=O)C(=O)[C@@]2(O)C(O)=C3C(=O)c4c(O)cccc4[C@@](C)(O)[C@H]3C[C@@H]12 [tetracycline]
MIC ([6]; Escherichia coli): ~900 µM (≈ 400 µg/mL) | Minimal Inhibitory Concentrations (MIC) E. coli (Tet^R) ([6]; microtiter, inhibition greater than 80% considered as the MIC): 900 µM and 900 ± 100 µM | MIC [6]: 900 ± 50 µM and 900 µM | MIC [12]: 1000 µM (≈ 444 µg/mL) | Minimal Inhibitory Concentrations (MIC) K. pneumoniae ([12]; compound alone, inhibition greater than 80% considered as the MIC): 1000 ± 100 µM | MIC ([9]; Escherichia coli): 6 µM (≈ 2.67 µg/mL) | recovery of tetracycline activity by hydraphiles [13]: 40 fold

O=C(O)c1cn(C2CC2)c2cc(N3CCNCC3)c(F)cc2c1=O [Ciprofloxacin]
MIC [12]: 700 µM (≈ 232 µg/mL) | susceptibility of S. aureus 1199B [1]: resistant | recovery of ciprofloxacin activity by hydraphiles [13]: 10 fold

CO[C@H]1/C=C/O[C@@]2(C)Oc3c(C)c(O)c4c(O)c(c(/C=N/N5CCN(C)CC5)c(O)c4c3C2=O)NC(=O)/C(C)=C\C=C\[C@H](C)[C@H](O)[C@@H](C)[C@@H](O)[C@@H](C)[C@H](OC(C)=O)[C@@H]1C [rifampicin, reference compound]
MIC ([9]; Escherichia coli): 20 µM (≈ 16.5 µg/mL) | MIC [10]: 60 µM (≈ 49.4 µg/mL)

N,N′-di-n-dodecyl-4,13-diaza-18-crown-6 [C12 lariat ether]
Antibiotic Used (μM) in combination [3, 15]: 3 µM | Fold Enhancement [3, 15]: 2 fold | MIC (μM) E. coli [4]: >300 µM | MIC (μM) S. cerevisiae [5]: 2.5 µM | MIC (μM) B. subtilis [7]: 2.5 µM | Antibiotic Used (μM) in combination ([2]; amphiphile used 192 μM): 450 µM | Fold Enhancement ([2]; amphiphile used 192 μM): 2 fold | MIC [9]: >512 µM

CCCCCCCCCCCN1CCOCCOCCN(CCCCCCCCCCC)CCOCCOCC1 [C11 lariat ether, N,N′-bis(n-undecyl)-4,13-diaza-18-crown-6]
Antibiotic Used (μM) in combination [3, 14]: 10 µM | Fold Enhancement [3, 14]: 2 fold | Antibiotic Used (μM) in combination [3, 16]: 2.5 µM | Fold Enhancement [3, 16]: ~2 fold | MIC (μM) E. coli [4]: 24 µM (≈ 13.7 µg/mL) | MIC (μM) S. cerevisiae [5]: 1.5 µM (≈ 0.856 µg/mL) | MIC [6]: 24 µM (≈ 13.7 µg/mL) | MIC (μM) B. subtilis [7]: 9 µM (≈ 5.14 µg/mL) | Antibiotic Used (μM) in combination ([2]; amphiphile used 8 μM): 175 µM | Fold Enhancement ([2]; amphiphile used 8 μM): 5 fold | Antibiotic Used (μM) in combination ([2]; amphiphile used 16 μM): 87 µM | Fold Enhancement ([2]; amphiphile used 16 μM): 10 fold | Antibiotic Used (μM) in combination ([2]; amphiphile used 18 μM): 87 µM | Fold Enhancement ([2]; amphiphile used 18 μM): 10 fold | Antibiotic Used (μM) in combination ([2]; amphiphile used […] μM): 87 µM | Fold Enhancement ([2]; amphiphile used […] μM): 10 fold | LD50 to HEK-293 [8]: 22 µM | MIC [9]: 24 µM (≈ 13.7 µg/mL) | Antibiotic Used (μM) in combination [11, 17]: 15 µM | Fold Enhancement [11, 17]: 4 fold | Antibiotic Used (μM) in combination [11, 18]: 6 µM | Fold Enhancement [11, 18]: 10 fold | Antibiotic Used (μM) in combination [11, 19]: 3 µM | Fold Enhancement [11, 19]: 20 fold | Antibiotic Used (μM) in combination [11, 20]: 6 µM | Fold Enhancement [11, 20]: 10 fold | Antibiotic Used (μM) in combination [11, 21]: 3 µM | Fold Enhancement [11, 21]: 4 fold | Antibiotic Used (μM) in combination [11, 22]: 0.25 µM | Fold Enhancement [11, 22]: 48 fold | Antibiotic Used (μM) in combination [11, 23]: 1.5 µM | Fold Enhancement [11, 23]: 8 fold | Antibiotic Used (μM) in combination [11, 24]: 1 µM | Fold Enhancement [11, 24]: 12 fold | MIC [10]: 24 µM (≈ 13.7 µg/mL)

Gramicidin D [reference compound]
[Tetracycline] μM in combination ([2]; amphiphile/control 20 μM): 900 ± 100 µM
